PubChem BioAssay AID1259407 (Chemical Carcinogenesis Research Information System (CCRIS), 2018)
Entries after “also recorded” stand apart in the source; their conditions may differ. Calls of active or inactive are those of the source. How the calls were made is not given here.

Tested on: CCRIS mutagenicity, Ames/micronucleus/aberration tests
Assay: CCRIS mutagenicity studies

Measured: mutagenic call

Nc1ccc(Oc2ccc(N)cc2)cc1
active: End Point: IN VITRO CHROMOSOMAL ABERRATIONS, Test System: CHL CELLS, Metabolic Activation: NONE active; positive (structural changes); precipitation occurred at 1.3 and 5.0 mg/ml; also recorded: active; positive (structural changes); precipitation occurred at 1.7 and 5.0 mg/ml | End Point: IN VITRO CHROMOSOMAL ABERRATIONS, Test System: CHL CELLS, Metabolic Activation: RAT, LIVER, S-9, SODIUM PHENOBARBITAL AND 5,6-BENZOFLAVONE active; positive (structural changes); precipitation occurred at 1.7 mg/ml | End Point: IN VITRO CHROMOSOMAL ABERRATIONS, Test System: CHO CELLS, Metabolic Activation: RAT, LIVER, S-9, AROCLOR 1254 active; positive; precipitation occurred at 1600 and 5000 ug/ml; also recorded: active; positive; precipitation occurred at 2000, 3000, 4000 and 5000 ug/ml | Test System: AMES SALMONELLA TYPHIMURIUM, Strain/Indicator: TA97, Metabolic Activation: HAMSTER, LIVER, S-9, AROCLOR 1254 (10%), Method: PREINCUBATION active; positive | Test System: AMES SALMONELLA TYPHIMURIUM, Strain/Indicator: TA97, Metabolic Activation: RAT, LIVER, S-9, AROCLOR 1254 (10%), Method: PREINCUBATION active; positive | Test System: AMES SALMONELLA TYPHIMURIUM, Strain/Indicator: TA98, Metabolic Activation: HAMSTER, LIVER, S-9, AROCLOR 1254 (10%), Method: PREINCUBATION active; positive | Test System: AMES SALMONELLA TYPHIMURIUM, Strain/Indicator: TA98, Metabolic Activation: RAT LIVER S-9, PHENOBARBITAL AND BETA-NAPHTHOFLAVONE, Method: PREINCUBATION active; positive | Test System: AMES SALMONELLA TYPHIMURIUM, Strain/Indicator: TA98, Metabolic Activation: RAT, LIVER, S-9, AROCLOR 1254 (10%), Method: PREINCUBATION active; positive | Test System: AMES SALMONELLA TYPHIMURIUM, Strain/Indicator: TA98, Metabolic Activation: RAT, LIVER, S-9, PCB, Method: PREINCUBATION active; positive | Test System: AMES SALMONELLA TYPHIMURIUM, Strain/Indicator: TA98, Metabolic Activation: RAT, LIVER, S-9, PCB, Method: STANDARD PLATE active; positive | Test System: AMES SALMONELLA TYPHIMURIUM, Strain/Indicator: TA100, Metabolic Activation: HAMSTER, LIVER, S-9, AROCLOR 1254 (10%), Method: PREINCUBATION active; positive | Test System: AMES SALMONELLA TYPHIMURIUM, Strain/Indicator: TA100, Metabolic Activation: RAT LIVER S-9, PHENOBARBITAL AND BETA-NAPHTHOFLAVONE, Method: PREINCUBATION active; positive | Test System: AMES SALMONELLA TYPHIMURIUM, Strain/Indicator: TA100, Metabolic Activation: RAT, LIVER, S-9, AROCLOR 1254 (10%), Method: PREINCUBATION active; positive | Test System: AMES SALMONELLA TYPHIMURIUM, Strain/Indicator: TA100, Metabolic Activation: RAT, LIVER, S-9, PCB, Method: PREINCUBATION active; positive | Test System: AMES SALMONELLA TYPHIMURIUM, Strain/Indicator: TA100, Metabolic Activation: RAT, LIVER, S-9, PCB, Method: STANDARD PLATE active; positive | Test System: AMES SALMONELLA TYPHIMURIUM, Strain/Indicator: TA1535, Metabolic Activation: HAMSTER, LIVER, S-9, AROCLOR 1254 (10%), Method: PREINCUBATION active; positive | Test System: AMES SALMONELLA TYPHIMURIUM, Strain/Indicator: TA1537, Metabolic Activation: HAMSTER, LIVER, S-9, AROCLOR 1254 (10%), Method: PREINCUBATION active; positive | Test System: AMES SALMONELLA TYPHIMURIUM, Strain/Indicator: TA7005, Metabolic Activation: NONE, Method: FLUCTUATION (MICROTITER) active; positive
inactive: Test System: AMES SALMONELLA TYPHIMURIUM, Strain/Indicator: TA97, Metabolic Activation: NONE, Method: PREINCUBATION inactive; negative | Test System: AMES SALMONELLA TYPHIMURIUM, Strain/Indicator: TA98, Metabolic Activation: NONE, Method: FLUCTUATION (MICROTITER) inactive; negative | Test System: AMES SALMONELLA TYPHIMURIUM, Strain/Indicator: TA98, Metabolic Activation: NONE, Method: STANDARD PLATE inactive; negative | Test System: AMES SALMONELLA TYPHIMURIUM, Strain/Indicator: TA100, Metabolic Activation: NONE, Method: STANDARD PLATE inactive; negative | Test System: AMES SALMONELLA TYPHIMURIUM, Strain/Indicator: TA1535, Metabolic Activation: NONE, Method: PREINCUBATION inactive; negative | Test System: AMES SALMONELLA TYPHIMURIUM, Strain/Indicator: TA1535, Metabolic Activation: RAT LIVER S-9, PHENOBARBITAL AND BETA-NAPHTHOFLAVONE, Method: PREINCUBATION inactive; negative | Test System: AMES SALMONELLA TYPHIMURIUM, Strain/Indicator: TA1535, Metabolic Activation: RAT, LIVER, S-9, AROCLOR 1254 (10%), Method: PREINCUBATION inactive; negative | Test System: AMES SALMONELLA TYPHIMURIUM, Strain/Indicator: TA1537, Metabolic Activation: NONE, Method: FLUCTUATION (MICROTITER) inactive; negative | Test System: AMES SALMONELLA TYPHIMURIUM, Strain/Indicator: TA1537, Metabolic Activation: NONE, Method: PREINCUBATION inactive; negative | Test System: AMES SALMONELLA TYPHIMURIUM, Strain/Indicator: TA1537, Metabolic Activation: RAT LIVER S-9, PHENOBARBITAL AND BETA-NAPHTHOFLAVONE, Method: PREINCUBATION inactive; negative | Test System: AMES SALMONELLA TYPHIMURIUM, Strain/Indicator: TA1537, Metabolic Activation: RAT, LIVER, S-9, AROCLOR 1254 (10%), Method: PREINCUBATION inactive; negative | Test System: AMES SALMONELLA TYPHIMURIUM, Strain/Indicator: TA7001, Metabolic Activation: NONE, Method: FLUCTUATION (MICROTITER) inactive; negative | Test System: AMES SALMONELLA TYPHIMURIUM, Strain/Indicator: TA7002, Metabolic Activation: NONE, Method: FLUCTUATION (MICROTITER) inactive; negative | Test System: AMES SALMONELLA TYPHIMURIUM, Strain/Indicator: TA7003, Metabolic Activation: NONE, Method: FLUCTUATION (MICROTITER) inactive; negative | Test System: AMES SALMONELLA TYPHIMURIUM, Strain/Indicator: TA7004, Metabolic Activation: NONE, Method: FLUCTUATION (MICROTITER) inactive; negative | Test System: AMES SALMONELLA TYPHIMURIUM, Strain/Indicator: TA7006, Metabolic Activation: NONE, Method: FLUCTUATION (MICROTITER) inactive; negative | Test System: E.COLI, Strain/Indicator: WP2UVRA, Metabolic Activation: NONE, Method: PREINCUBATION inactive; negative | Test System: E.COLI, Strain/Indicator: WP2UVRA, Metabolic Activation: RAT LIVER S-9, PHENOBARBITAL AND BETA-NAPHTHOFLAVONE, Method: PREINCUBATION inactive; negative
